According to patent US11396535B2, “Cyclic peptide analogs of melanocortin and amanitin and methods of making such” (THE UNIVERSITY OF BRITISH COLUMBIA, priority 2019, dated 2022):
Starred links: 1 amine or outer side, 2 acyl side, 3 side chain; linkers in the order of their positions; H or OH if unused. Positions of bridges follow the written chain, without caps; N, C: chain ends. Non-standard residues stand in square brackets, D forms with d. Residues, ends and D or L forms follow the SMILES beside them. ξ: configuration not given here. Ile(4R-OH,5-OH) = C[C@H]([C@H](N)C(=O)O)[C@@H](O)CO; X1 = O=C([C@H](Cn1cc2ccccc2c1[*:3])N[*:1])[*:2]; Hyp = O=C(O)[C@@H]1C[C@@H](O)CN1; Dap = NC[C@H](N)C(=O)O; ξC = NC(CS)C(=O)O

What was measured:
CHO cells [1] = type: cell-based; conditions: for toxicity (cytotoxicity): triplicate
Protocol: FIG. 6: Cytotoxicity assays—CHO cells were incubated with α-amanitin, the monocyclic octapeptide precursor and the FlICk-amanitin-1 for 72 h in triplicate and cell viability was assessed by spectrophotometry with MTT indicator.
FIGS. 11A-11B: MTT cell viability assay against CHO cells: (A) alpha-amanitin; (B) FlICk-amanitin.
Both FlICk amanitin and authentic α-amanitin (purchased from Sigma Aldrich) were dissolved in H2O. The FlICk amanitin concentrations used were 100 μM, 20 μM, 4 μM, 0.8 μM, 0.16 μM, 0.032 μM, 0.0064 μM, 0.00128 μM. The α-amanitin concentrations used were 10 μM, 2 μM, 0.4 μM, 0.08 μM, 0.016 μM, 0.0032 μM, 0.00064 μM, 0.000128 μM, 0.0000256 μM. The cell culture and MTT assay procedures were carried out as per our report on the total synthesis of α-amanitin^38. The MTT assays were run in triplicate. The IC50 assay curves were produced using Prism Software.

CHO cells [2] = conditions: literature value, read-out: IC50 (cytotoxic to CHO cells); cited from earlier work
melanocortin receptors = conditions: literature value; cited from earlier work

CC[C@H](C)[C@@H]1NC(=O)CNC(=O)[C@@H]2Cn3cc4ccccc4c3SCC(NC(=O)CNC1=O)C(=O)N[C@@H](CC(N)=O)C(=O)N1C[C@H](O)C[C@H]1C(=O)N[C@@H]([C@@H](C)[C@@H](O)CO)C(=O)N2 [FlICk-amanitin-1] (cyclo(GIG[ξC]N[Hyp][Ile(4R-OH,5-OH)][X1]); thioether 4-8)
fold less toxic than α-amanitin (CHO cells [1]; 72 h, MTT): approximately 100 fold
toxicity (cytotoxicity) (CHO cells [1]; 72 h, MTT): detectable toxicity
fold less toxic than dideoxy-amanitin (CHO cells [1]; versus dideoxy-amanitin IC50 of 2 μM): 20 fold

α-amanitin
IC50 (CHO cells [2]): ~500 nM

CC[C@H](C)[C@@H]1NC(=O)CNC(=O)[C@H](CN)NC(=O)[C@H]([C@@H](C)[C@@H](O)CO)NC(=O)[C@@H]2C[C@@H](O)CN2C(=O)[C@H](CC(N)=O)NC(=O)[C@H](CS)NC(=O)CNC1=O [monocyclic octapeptide precursor, Cyclo-[DhIle-Dap-Gly-Ile-Gly-Cys-Asn-Hyp]] (cyclo(CN[Hyp][Ile(4R-OH,5-OH)][Dap]GIG))
toxicity (cytotoxicity) (CHO cells [1]; 72 h, MTT): no detectable toxicity

N-Acetyl-L-norleucyl-L-α-aspartyl-L-histidyl-D-phenylalanyl-L-arginyl-L-tryptophyl-L-lysinamide (2→7)-lactam [Melanotan-II]
Kd (melanocortin receptors): ~1 nM
